Peptide text beside a SMILES is read from it.
Experiments:
[1] = tested on: Fusarium culmorum VKM F-2303; assay: Spore germination and fungal growth inhibition (absorbance); format: cell-based; conditions: for IC50: Fusarium culmorum, 38 h incubation, absorbance 595 nm, max tested 150 μM, mean ± SD, three replicates; for Inhibition of F. culmorum growth: 38 h
Procedure: (§1) To study the effect of peptides on spore germination and growth of plant pathogenic fungi, fungal strains from the VKM collection were used: Fusarium culmorum VKM F-2303, F. oxysporum VKM F-137, F. solani VKM F-142, F. verticillioides VKM F-670, Bipolaris sorokiniana VKM F-4006, and Botrytis cinerea VKM F-4549. The fungi were grown on potato dextrose agar at 25 °C for 7–8 days, or for B. sorokiniana and B. cinerea, for 10–12 days. Spores were washed off from the surface of the mycelia with sterile distilled water and filtered through a sterile filter. The filtrate was centrifuged at 6000 rpm for 15 min. The precipitate was washed three times with sterile distilled water, transferred to Eppendorf tubes, and centrifuged at 10,000 rpm for 2 min. 1 mL of sterile aqueous 20% glycerol solution was added to the spores, and the tubes with spores were stored in a freezer at −20 °C.
(§2) Similar to antimicrobial assays with yeasts and bacteria, the effect of peptides on spore germination and fungal growth was studied by measuring the absorbance of the spore suspension in the presence of the peptide in microtiter plates. The wells of a plate were filled with 90 µL of spore suspension in half-strength potato dextrose broth at a concentration of 2000–3000 spores in 100 µL and 10 µL of aqueous solutions of peptides at final concentrations of 10–300 µM. The concentration of spores in the suspension was determined in the Goryaev chamber. The absorbance was recorded at 595 nm on a FilterMax F5 Multi-Mode Microplate Reader (Molecular Devices, San Jose, CA, USA) after 38 h of incubation, for B. sorokiniana and B. cinerea, after 14, 19, 24, 38, 43, 62 h.
(§3) Antimicrobial activity was expressed in IC50 values, which denote the concentration required for 50% inhibition of the pathogen growth; this was determined from a graph showing the dependence of antimicrobial activity on peptide concentration.
(§4) For each pathogen, experiments on the evaluation of antimicrobial activity of the synthetic peptides were performed with three replicates per treatment. Mean values, standard deviations (SD), and the significance of differences (p ≤ 0.05) of the means between treatments and controls (t-test for independent variables) were determined using STATISTICA v. 6.1 software (StatSoft Inc., Tulsa, OK, USA).

F. oxysporum VKM F-137 = format: cell-based; conditions: Fusarium oxysporum; 38 h incubation, absorbance 595 nm; max tested 150 μM; mean ± SD, three replicates
Procedure: as §1, §2, §3, §4

[2] = tested on: Clavibacter michiganensis subsp. michiganensis VKM Ac-1403; format: cell-based; conditions: for IC50: Clavibacter michiganensis, 24 h incubation, 30 °C, absorbance 594 nm, max tested 100 μM, mean ± SD, three replicates
Procedure: (§5) The antimicrobial activity of synthetic peptides was tested against the yeasts Cryptococcus neoformans VKM Y-2755 and Candida albicans VKM Y-2994, as well as against the bacteria Pectobacterium carotovorum subsp. carotovorum VKM B-1247, Pseudomonas savastanoi pv. savastanoi VKM B-1546 and Clavibacter michiganensis subsp. michiganensis VKM Ac-1403. All cultures were obtained from the All-Russian Collection of Microorganisms (VKM). Yeasts were grown on YPD-P medium containing (g/L): glucose–10, peptone–5 and yeast extract–4. Bacterial cultures were grown on medium containing (g/L): yeast extract–1, soya extract–30, aminopeptides (a solution of low-molecular weight peptides and all essential amino acids obtained from the blood of cattle by enzymatic hydrolysis)–60, tryptone–5 and pH 7.2. The microbial cultures were grown on a shaker at 30 °C for 24 h. The optical density of the cultures was measured on a UNICO 1201 (Unico, Dayton, NJ, USA) spectrophotometer at 594 nm. Yeast cultures were diluted 1:10 with water before analysis. […] The antibiotic activity of peptides against yeasts and bacteria was assayed in immunoassay microtiter plates. 10 µL of the tested peptide solution (final concentrations of 10–300 µM) in water, 80 µL of the medium and 10 µL of the microbial suspension were mixed in a well of the microtiter plate and incubated at 30 °C for 24 h; after that, the absorbance of the suspension was measured on an Efos 9305 spectrophotometer (Sapphire, Moscow, Russia) at 594 nm.
as §3, §4

[3] = tested on: Cryptococcus neoformans VKM Y-2755; conditions: for IC50: Cryptococcus neoformans, 24 h incubation, 30 °C, absorbance 594 nm, max tested 100 μM, mean ± SD, three replicates; for Inhibition of C. neoformans growth: peptide 300 μM, 24 h, relative to control
Procedure: as §5, §3
For each pathogen, experiments on the evaluation of antimicrobial activity of the synthetic peptides were performed with three replicates per treatment. Mean values, standard deviations (SD), and the significance of differences (p ≤ 0.05) of the means between treatments and controls (t-test for independent variables) were determined using […] v. 6.1 software (StatSoft Inc., Tulsa, OK, USA).

[4] = tested on: F. verticillioides VKM F-670; format: cell-based, Fusarium verticillioides; conditions: for IC50: Fusarium verticillioides, 38 h incubation, absorbance 595 nm, max tested 180 μM, mean ± SD, three replicates
Procedure: as §1
as §2, with “h. […]” for “h.”
(§6) For each pathogen, experiments on the evaluation of antimicrobial activity of the synthetic peptides were performed with three replicates per treatment. Mean values, standard deviations (SD), and the significance of differences (p ≤ 0.05) of the means between treatments and controls (t-test for independent variables) were determined using STATISTICA v. […]

F. solani VKM F-142 = format: cell-based, Fusarium solani; conditions: for IC50: Fusarium solani, 38 h incubation, absorbance 595 nm, max tested 150 μM, mean ± SD, three replicates
Procedure: as §1
as §2, with “h. […]” for “h.”
as §6

[5] = tested on: Pectobacterium carotovorum subsp. carotovorum VKM B-1247; assay: Growth inhibition of bacteria in microtiter plates (absorbance); format: cell-based; conditions: peptide 300 μM, 24 h, relative to control
Procedure: The antimicrobial activity of synthetic peptides was tested against the yeasts Cryptococcus neoformans VKM Y-2755 and Candida albicans VKM Y-2994, as well as against the bacteria Pectobacterium carotovorum subsp. carotovorum VKM B-1247, Pseudomonas savastanoi pv. savastanoi VKM B-1546 and Clavibacter michiganensis subsp. michiganensis VKM Ac-1403. All cultures were obtained from the All-Russian Collection of Microorganisms (VKM). Yeasts were grown on YPD-P medium containing (g/L): glucose–10, peptone–5 and yeast extract–4. […] The optical density of the cultures was measured on a UNICO 1201 (Unico, Dayton, NJ, USA) spectrophotometer at 594 nm. […] 10 µL of the tested peptide solution (final concentrations of 10–300 µM) in water, 80 µL of the medium and 10 µL of the microbial suspension were mixed in a well of the microtiter plate and incubated at 30 °C for 24 h; after that, the absorbance of the suspension was measured on an Efos 9305 spectrophotometer (Sapphire, Moscow, Russia) at 594 nm. […]
as §6

[6] = tested on: Botrytis cinerea VKM F-4549; format: cell-based; conditions: for Inhibition of B. cinerea growth: peptide 300 μM, relative to control; for B. cinerea growth dynamics in the presence of peptide: peptide 60 μM, absorbance after 14-62 h, control H2O
Procedure: as §1, §2, §3, §4

[7] = tested on: Bipolaris sorokiniana VKM F-4006; assay: Spore germination and fungal growth inhibition (absorbance); format: cell-based; conditions: for Inhibition of B. sorokiniana growth: peptide 300 μM, relative to control
Procedure: as §1, §2, §3, §4

Fusarium species = assay: Spore germination and fungal growth inhibition, statement for all tested Fusarium species; format: cell-based; conditions: peptide 300 μM, relative to control
Procedure: as §1
as §2, with “h. […]” for “h.”
as §6

Compound	IC50 [1] [µM]	IC50 (F. oxysporum VKM F-137) [µM]	IC50 [2] [µM]	IC50 [3] [µM]	Inhibition of B. cinerea growth [6]	Suppression of Fusarium species (Fusarium species)	other results
CC(C)C[C@H](NC(=O)[C@H](CC(N)=O)NC(=O)[C@H](CCC(N)=O)NC(=O)[C@H](CCCNC(=N)N)NC(=O)[C@H](CO)NC(=O)[C@H](CO)NC(=O)[C@H](CCCCN)NC(=O)[C@H](CO)NC(=O)[C@H](CS)NC(=O)[C@H](CCCNC(=N)N)NC(=O)[C@@H](NC(=O)[C@H](CCCCN)NC(=O)[C@H](CS)NC(=O)[C@H](CO)NC(=O)CN)[C@@H](C)O)C(=O)N[C@@H](CS)C(=O)N[C@@H](CC(N)=O)C(=O)N[C@@H](CCCNC(=N)N)C(=O)O [γ47-64SlSN10] (H-GSCKTRCSKSSRQNLCNR-OH)	127 ± 8.5	43.8 ± 6.8	–	–	–	–	–
CC(C)C[C@H](NC(=O)[C@H](CCCNC(=N)N)NC(=O)[C@H](CS)NC(=O)[C@H](CCCNC(=N)N)NC(=O)[C@H](C)NC(=O)[C@H](C)NC(=O)[C@H](CS)NC(=O)[C@H](C)NC(=O)CN)C(=O)N[C@@H](CO)C(=O)N[C@@H](CO)C(=O)N[C@@H](CCCNC(=N)N)C(=O)N1CCC[C@H]1C(=O)N[C@@H](CCCNC(=N)N)C(=O)N[C@@H](CC(C)C)C(=O)N[C@@H](CS)C(=O)N[C@@H](Cc1c[nH]cn1)C(=O)N[C@@H](CCCNC(=N)N)C(=O)O [γ48-65SlSN2] (H-GACAARCRLSSRPRLCHR-OH)	42.1 ± 6.5	57.1 ± 11.6	23.1 ± 2.7	4.2 ± 0.6	–	–	Inhibition of F. culmorum growth ([1]; peptide 75 μM): 79%; IC50 [4]: 152 ± 7.7 µM; IC50 (F. solani VKM F-142): 47.5 ± 2 µM; Maximum inhibition of F. solani (F. solani VKM F-142; peptide 150 μM, 38 h): 69%
C[C@@H](O)[C@H](NC(=O)[C@H](CS)NC(=O)[C@H](Cc1ccccc1)NC(=O)[C@H](CS)NC(=O)[C@H](CCCNC(=N)N)NC(=O)[C@H](CCCNC(=N)N)NC(=O)[C@H](CCCNC(=N)N)NC(=O)[C@H](Cc1ccccc1)NC(=O)CNC(=O)[C@H](CCCNC(=N)N)NC(=O)[C@H](CS)NC(=O)[C@H](CC(=O)O)NC(=O)CNC(=O)CNC(=O)[C@H](CO)NC(=O)[C@@H](N)Cc1ccccc1)C(=O)N[C@@H](CCCNC(=N)N)C(=O)O [γ58-74SlDEFL2] (H-FSGGDCRGFRRRCFCTR-OH)	44.8 ± 4	–	19.8 ± 2.5	11.5 ± 2.5	31–45%	–	Inhibition of P. carotovorum growth [5]: 48%; Inhibition of C. neoformans growth [3]: 90%
C[C@@H](O)[C@H](NC(=O)[C@H](CS)NC(=O)[C@H](Cc1ccccc1)NC(=O)[C@H](CS)NC(=O)[C@H](CCCNC(=N)N)NC(=O)[C@H](CCCNC(=N)N)NC(=O)[C@H](CCCNC(=N)N)NC(=O)[C@H](Cc1ccccc1)NC(=O)CNC(=O)[C@H](CCCNC(=N)N)NC(=O)[C@H](CS)NC(=O)[C@H](CC(N)=O)NC(=O)CNC(=O)CNC(=O)[C@@H](NC(=O)[C@@H](N)Cc1ccccc1)[C@@H](C)O)C(=O)N[C@@H](CCCNC(=N)N)C(=O)O [γ58-74SlDEFL4] (H-FTGGNCRGFRRRCFCTR-OH)	42.3 ± 5.7	125 ± 3.7	21.5 ± 5.1	8.1 ± 2.4	31–45%	–	–
CC[C@H](C)[C@H](NC(=O)[C@H](CCC(=O)O)NC(=O)[C@@H]1CCCN1C(=O)[C@H](CS)NC(=O)[C@H](CS)NC(=O)CNC(=O)[C@@H](N)CCCCN)C(=O)N[C@@H](C)C(=O)NCC(=O)N[C@@H](CC(C)C)C(=O)N[C@@H](CC(C)C)C(=O)N[C@@H](CC(=O)O)C(=O)N[C@@H](CO)C(=O)N[C@@H](CC(N)=O)C(=O)N1CCC[C@H]1C(=O)N[C@H](C(=O)N[C@@H](CS)C(=O)O)[C@@H](C)CC [γ70-86SlLTPg2.8] (H-KGCCPEIAGLLDSNPIC-OH; N-terminus and C-terminus assumed)	–	–	–	–	–	–	B. cinerea growth dynamics in the presence of peptide [6]: insensitive
CC(C)C[C@H](NC(=O)CN)C(=O)N[C@@H](CS)C(=O)N[C@@H](CCCCN)C(=O)N[C@@H](Cc1ccc(O)cc1)C(=O)N[C@@H](CCCNC(=N)N)C(=O)N[C@@H](CS)C(=O)N[C@@H](CO)C(=O)N[C@@H](CC(C)C)C(=O)N[C@@H](Cc1c[nH]cn1)C(=O)N[C@@H](CO)C(=O)N[C@@H](CCCNC(=N)N)C(=O)N1CCC[C@H]1C(=O)N[C@@H](CC(N)=O)C(=O)N[C@H](C(=O)N[C@@H](CS)C(=O)N[C@@H](Cc1ccccc1)C(=O)N[C@@H](CCCNC(=N)N)C(=O)O)C(C)C [γ89-106SlSN9] (H-GLCKYRCSLHSRPNVCFR-OH)	42.4 ± 3.5	–	24 ± 2.4	5.1 ± 1.2	–	–	Inhibition of F. culmorum growth ([1]; peptide 50 μM): 72%; IC50 [4]: 99.8 ± 10 µM; Maximum inhibition of F. verticillioides ([4]; peptide 180 μM, 38 h): 62%; IC50 (F. solani VKM F-142): 139 ± 6.1 µM
C[C@@H](O)[C@H](NC(=O)[C@H](CCCCN)NC(=O)[C@@H]1CCCN1C(=O)[C@@H](NC(=O)[C@H](Cc1ccccc1)NC(=O)[C@H](CO)NC(=O)[C@H](CS)NC(=O)[C@H](Cc1ccc(O)cc1)NC(=O)CNC(=O)[C@H](Cc1ccccc1)NC(=O)[C@@H]1CCCN1C(=O)[C@@H](N)CCCNC(=N)N)[C@@H](C)O)C(=O)N[C@@H](CS)C(=O)O [γ92-104SlMEG2] (H-RPFGYCSFTPKTC-OH; N-terminus and C-terminus assumed)	–	–	–	–	36–40%	insensitive	B. sorokiniana growth dynamics in the presence of peptide ([7]; peptide 60 μM, effect observed after 38 h of spore incubation, control H2O): significant growth suppression; Inhibition of C. michiganensis growth ([2]; peptide 300 μM, 24 h, relative to control): with high efficiency; Inhibition of C. neoformans growth [3]: with high efficiency; B. cinerea growth dynamics in the presence of peptide [6]: insensitive
SGCCTQLGTVVKNNPEC [γ56-72SlLTPg2.4, synthetic 17-residue peptide corresponding to the γ-core region of tomato nsLTP SlLTPg2.4]	–	–	–	–	inactive	inactive	Inhibition of B. sorokiniana growth [7]: inactive
SGCCTQLSTVVDEKSEC [γ53-69SlLTPg2.5, synthetic 17-residue peptide corresponding to the γ-core region of tomato nsLTP SlLTPg2.5]	–	–	–	–	inactive	inactive	Inhibition of B. sorokiniana growth [7]: inactive

Source: paper PMC8929047, “Synthetic Oligopeptides Mimicking γ-Core Regions of Cysteine-Rich Peptides of Solanum lycopersicum Possess Antimicrobial Activity against Human and Plant Pathogens” (Current Issues in Molecular Biology, 2021)
